# Reference: patent publication US20260097047A1, “Small molecule inhibitors of the ribosome biogenesis factor NVL2” (Board of Regents, The University of Texas System, priority 2023, published 2026)
# Where “and” joins values, the source holds several entries; their conditions need not be identical. Equal values may be shown once.
# Experiments:
# NVL = target: T1, NVL (Homo sapiens, UniProt O15381); test: Viability of NVL^AID/AID cells relying on ectopic human NVL (Ph-IAA); format: cell-based; set-up: expressed in transfected cells; host or cells: HCT116 NVL^AID/AID cells (viral infection; 'mock infected' control); settings: endogenous NVL degraded with Ph-IAA; read-out: IC50, cells expressing ectopic human NVL
# T1 sequence (O15381 1-856): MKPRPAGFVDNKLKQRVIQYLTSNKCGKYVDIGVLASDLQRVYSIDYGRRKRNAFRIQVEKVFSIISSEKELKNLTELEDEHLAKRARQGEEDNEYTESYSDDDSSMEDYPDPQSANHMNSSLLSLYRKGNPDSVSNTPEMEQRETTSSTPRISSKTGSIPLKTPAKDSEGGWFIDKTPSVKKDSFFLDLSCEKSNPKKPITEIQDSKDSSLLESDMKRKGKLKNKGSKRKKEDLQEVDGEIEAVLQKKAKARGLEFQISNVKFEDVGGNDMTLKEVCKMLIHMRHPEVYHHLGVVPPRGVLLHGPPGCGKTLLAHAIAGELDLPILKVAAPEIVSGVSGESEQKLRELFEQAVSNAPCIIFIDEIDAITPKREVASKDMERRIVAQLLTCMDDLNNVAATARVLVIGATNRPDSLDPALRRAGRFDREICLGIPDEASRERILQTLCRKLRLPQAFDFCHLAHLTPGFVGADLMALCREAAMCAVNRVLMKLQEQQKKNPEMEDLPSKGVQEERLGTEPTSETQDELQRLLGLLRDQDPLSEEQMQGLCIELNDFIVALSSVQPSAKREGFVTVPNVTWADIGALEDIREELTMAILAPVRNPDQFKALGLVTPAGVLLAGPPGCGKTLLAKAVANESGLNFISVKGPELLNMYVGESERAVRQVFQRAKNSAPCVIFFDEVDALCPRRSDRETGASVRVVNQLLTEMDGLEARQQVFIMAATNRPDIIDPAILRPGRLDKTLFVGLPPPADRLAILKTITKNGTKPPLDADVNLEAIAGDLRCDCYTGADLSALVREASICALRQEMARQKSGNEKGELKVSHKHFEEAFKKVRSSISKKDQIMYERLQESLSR
# From the text: Next, we investigated whether inhibitors of NVL could inhibit the growth of cell line derived xenografts tumors in mice, and whether systemic inhibition of NVL leads to specific toxicities. […] To test the potency of MM927 against mouse NVL within the same cell type, we ectopically expressed either human or mouse NVL in NVL^AID/AID cells. Treatment with Ph-IAA degrades the endogenous protein so that the cells must rely solely on ectopically expressed NVL. In the mock infected cells, degrading NVL^AID/AID by the addition of Ph-IAA reduced cell viability as expected, and the viability was completely rescued by expression of either ectopic mouse or human NVL.
# [1] = Pharmacokinetic studies in CD-1 female mice, intraperitoneal; format: in vivo, mouse
# Experimental: Plasma exposure was dose-dependent up to 35 mg/kg (IP injection) reaching a maximum concentration at 17.86 μM. These levels exceed the anti-proliferative IC99 of MM927 in cells expressing either human or mouse NVL. In a subsequent pharmacodynamic (PD) study, we asked if we could assess on-target NVL inhibition via a subsequent p53 and/or p21 induction in tumor xenografts in mice treated with MM927. We implanted HCT116 NVL^WT and NVL^R403W cells subcutaneously on either flank of the mice and evaluated the levels of p53 and p21 in either tumor at various time points after IP administration of 35 mg/kg of MM927.
# Pharmacokinetic studies were performed by dosing 6-7 week old CD-1 female mice with analog MM927 formulated as 10% DMSO/10% Kolliphor EL/10% Solutal/70% D5W via the intraperitoneal route. Animals were euthanized in groups of three, blood was obtained by cheek bleeds at each time point (0, 10, 30, 90, 180, 360, 960 and 1440 minutes post dose) using the anticoagulant ACD (acidified citrate dextrose) and plasma isolated by centrifugation. For the dose escalation study, mice were dosed with 20 mg/kg, 35 mg/kg, or 60 mg/kg and blood was collected at 10, 180, and 720 minutes post dose. […] The resulting supernatants were evaluated by LC-MS/MS using a Sciex (Framingham, MA) 4500 Triple Quad coupled to a Shimadzu (Columbia, MD) Prominence LC. Briefly, MM927 was detected in multiple reaction monitoring mode (MRM) using the (m+1) transition 488.059/176.1. […] The concentrations of drug in each time-point sample were quantified using Analyst software (Sciex). […] The limit of quantitation (LOQ) was defined as the lowest concentration at which back calculation yielded a concentration within 20% of theoretical and which was above the LOD. Cmax and AUC values were calculated using the noncompartmental analysis tool of Phoenix WinNonLin (Certara/Pharsight, Sunnyvale, CA).
structure (smiles),measurement,setting,value
"CC#CCN1C(=O)c2ccc(F)cc2Sc2cc(NC(=O)c3ccc4oc(=O)n(C)c4c3)ccc21 [MM927, N-(10-(But-2-yn-1-yl)-3-fluoro-11-oxo-10,11-dihydrodibenzo[b,f][1,4]thiazepin-7-yl)-3-methyl-2-oxo-2,3-dihydrobenzo[d]oxazole-5-carboxamide]",IC50,NVL,51 nM
same,maximum plasma concentration,"[1]; 35 mg/kg IP injection, dose escalation",17.86 µM
same,half-life,"[1]; female, CD-1, mouse, plasma, 10 mg/kg intraperitoneal (IP) injection, read-out: elimination half-life",1.69 h
same,Cmax,"[1]; female, CD-1, mouse, plasma, 10 mg/kg intraperitoneal (IP) injection, read-out: peak plasma levels (Cmax)",2510 ng/mL and 5.15 µM
